Experimental data from US5831000A, “Hybrid calcitonin” (Chugai Seiyaku Kabushiki Kaisha, priority 1990, dated 1998).
“And” between values parts separate entries of the source, which are not always exact repeats. Equal entries are not always repeated. Where two headings read alike, the source gives them in different places. Values belong to the molecule of their own block, whether it stands above or below them. Positions of bridges follow the written chain, without caps; N, C: chain ends. Residues, ends and D or L forms follow the SMILES beside them.

Experiments:
Female beagles [1] = conditions: dog, in vivo
Protocol: (§1) One hour later, enteric aspirin tablets (containing 200 mg of the active ingredient) were administered orally together with 25 ml of water. Thereafter, blood samples were taken from the other cephalic vein at given time intervals, and the plasma obtained in the usual manner was stored at -20° C. until measurement.
(§2) As it passes through the intestinal wall, most of the ingested aspirin is metabolized and enters the blood stream as salicylic acid. […] Ethanol (200 μl) was added to 50 μl of plasma and the mixture was centrifuged at 10,000 rpm×1 min, with the resulting supernatant being subjected to HPLC.
(§3) The difference between the time from calcitonin administration to the absorption of aspirin and the time from physiological saline administration to the absorption of aspirin was calculated for each animal to determine the delay in gastric emptying time.

Female beagles [2] = test: Effects of calcitonins on gastric emptying time (enteric aspirin absorption); conditions: for Delay time (difference in time to aspirin absorption between calcitonin and physiological saline) / Lag time (time from aspirin administration to its absorption): individual animals
Protocol: as §1, §2, §3

Rats = test: Effects of calcitonins on the inhibition of body weight gain and appetite; conditions: intramuscular, 12.5, 50 and 200 IU/kg, 24 h later
Protocol: Each of the calcitonins was administered in three different doses: 12.5 IU/kg, 50 IU/kg and 200 IU/kg. For the body weight changes, the measured values were averaged for 5 rats, and for the food consumption, the measured values for 5 rats were added together.

conscious dog = test: Effects of calcitonins on gastrointestinal motility (IMC) in conscious dog; type: in vivo, beagle dog; conditions: for effect on the IMC / gastrointestinal motility: i.v., conscious dog, summary of Table 10
Description: A healthy beagle dog weighing about 10 kg was anesthetized with an i.v. injection of pentobarbital sodium and the abdominal cavity was opened under aseptic conditions.
Extraluminal force transducers were sutured onto the serosa of the gastric antrum stomach, duodenum and jejunum to measure circular muscle contraction, as reported previously (Itoh et al. Gastroenterol Jpn. 12, 275 1977).
The lead wires of these transducers were out of the abdominal cavity and then brought out through a skin incision made between the scapulae.
After the abdominal surgery, a 5-cm longitudinal skin incision was made in the right Frontal neck to expose the external jugular vein.
After the operation, a jacket protector was placed on the dog to protect the lead wires and the Silastic tube.
The dog was housed in individual experimental cage, and given commercial dog food at 5:00 P.M. and water was given freely.
The gastrointestinal motor activity was recorded on a thermal pen writing recorder (WR-3101, Graphtic, Tokyo, Japan) by connecting the lead wires of the transducers to the connecting cables from the amplifiers (UG-5, Nihon Kohden, Tokyo, Japan).
About two weeks postoperation, gastrointestinal contractile activity could be divided into two main patterns of activity, the interdigestive and digestive states.
In the interdigestive state, IMC (interdigestive migrating motor complex) were seen to occur at regular intervals of 100 to 120 min. in the gastric antrum, and migrated through the duodenum and jejunum at a constant velocity.
In all animals, feeding disrupted the regular IMC pattern. Experiments were carried out during interdigestive state. The drug was dissolved into 0.9% saline and administered through the indwelling Silastic tube for about 10 seconds in a volume of 0.3 ml/kg.
15 Min after the end of the IMC in the gastric antrum, which were subsequently flushed in with 0.9% saline.
The time until the next IMC is occurred from administration of the drug was measured, and used as a index for inhibitory activity of the drug on gastrointestinal motility.

hypercalcemic rats = test: Efficacy of calcitonins against hypercalcemia (vitamin D3 hypercalcemic rats); type: in vivo, rat; conditions: 4 IU/kg subcutaneously, FIG. 1
Protocol: Vitamin D3 (5 mg/kg) was administered orally to 5-wk old SD male rats for 4 consecutive days to construct experimental models of hypercalcemic rats. […] Blood was sampled at given time intervals and the concentration of calcium in plasma was measured.

[3] = tested on: anti-salmon calcitonin human sera; test: Cross reaction between anti-salmon calcitonin human antibody and hybrid calcitonin (competition with 125I labelled salmon calcitonin); type: binding; conditions: anti-salmon calcitonin human sera Nos. 1-4, FIG. 5
Protocol: Salmon calcitonin was synthesized by an ordinary procedure of solid-phase synthesis. Salmon calcitonin labelled with ^125 I was prepared by the Tejedor method (Tejedor, F. and Ballesta, J. P. G.; Analytical Biochemistry, 127, 143-149 (1982)).
Four types of human sera that had been verified to contain antibody after administration of salmon calcitonin were furnished from Dr. Frederick R. Singer (CEDERS-SINAI MEDICAL CENTER). The antibody titres of those sera against salmon calcitonin were as follows:
A 0.1M borate buffer solution (pH 8.0) containing 0.5% BSA, 0.9% NaCl, 0.1% NaN3 and 0.05% Tween 20 was used as a reaction buffer. This reaction buffer, anti-salmon calcitonin human serum (diluted with the reaction buffer to a final dilution of 100-6,400) and a solution of labelled calcitonin were charged into an assist tube (Spitz type of Salschted Inc. measuring 12×75 mm) in the respective volumes shown below, stirred thoroughly, and left to stand overnight at room temperature.
The reaction solution was mixed well with 500 μl of 0.2% BGG (bovine γ-globulin, Sigma), further mixed with 1 ml of 25% PEG #6000, stirred thoroughly and thereafter left to stand at room temperature for 15 min. […] After removing the supernatant by aspiration, the radioactivity level of the residue was measured with a gamma-counter. […]

Structure (SMILES): CSCC[C@H](NC(=O)[C@@H]1CSSC[C@H](N)C(=O)NCC(=O)N[C@@H](CC(N)=O)C(=O)N[C@@H](CC(C)C)C(=O)N[C@@H](CO)C(=O)N[C@@H]([C@@H](C)O)C(=O)N1)C(=O)N[C@@H](CC(C)C)C(=O)NCC(=O)N[C@H](C(=O)N[C@@H](Cc1ccc(O)cc1)C(=O)N[C@H](C(=O)N[C@@H](CCC(N)=O)C(=O)N[C@@H](CC(=O)O)C(=O)N[C@@H](Cc1ccccc1)C(=O)N[C@@H](Cc1c[nH]cn1)C(=O)N[C@@H](CCCCN)C(=O)N[C@@H](CC(C)C)C(=O)N[C@@H](CCC(N)=O)C(=O)N[C@H](C(=O)N[C@@H](Cc1ccc(O)cc1)C(=O)N1CCC[C@H]1C(=O)N[C@@H](CCCNC(=N)N)C(=O)N[C@H](C(=O)N[C@@H](CC(N)=O)C(=O)N[C@H](C(=O)NCC(=O)N[C@@H](CO)C(=O)NCC(=O)N[C@H](C(=O)N1CCC[C@H]1C(N)=O)[C@@H](C)O)[C@@H](C)O)[C@@H](C)O)[C@@H](C)O)[C@@H](C)O)[C@@H](C)O [Example 1, (1-16) human/(17-32) salmon hybrid calcitonin] (H-CGNLSTCMLGTYTQDFHKLQTYPRTNTGSGTP-NH2; disulfide 1-7)
action in delaying the gastric emptying time (Female beagles [1]): more similar to human calcitonin than salmon calcitonin in delaying to gastric emptying time

Structure (SMILES): CC[C@H](C)[C@H](NC(=O)[C@H](C)NC(=O)[C@@H](NC(=O)[C@H](CCC(N)=O)NC(=O)[C@@H]1CCCN1C(=O)[C@H](Cc1ccccc1)NC(=O)[C@@H](NC(=O)[C@H](Cc1c[nH]cn1)NC(=O)[C@H](Cc1ccccc1)NC(=O)[C@H](CCCCN)NC(=O)[C@H](CC(N)=O)NC(=O)[C@H](Cc1ccccc1)NC(=O)[C@H](CC(=O)O)NC(=O)[C@H](CCC(N)=O)NC(=O)[C@@H](NC(=O)[C@H](Cc1ccc(O)cc1)NC(=O)[C@@H](NC(=O)CNC(=O)[C@H](CC(C)C)NC(=O)[C@H](CCSC)NC(=O)[C@@H]1CSSC[C@H](N)C(=O)NCC(=O)N[C@@H](CC(N)=O)C(=O)N[C@@H](CC(C)C)C(=O)N[C@@H](CO)C(=O)N[C@@H]([C@@H](C)O)C(=O)N1)[C@@H](C)O)[C@@H](C)O)[C@@H](C)O)[C@@H](C)O)C(=O)NCC(=O)N[C@H](C(=O)NCC(=O)N[C@@H](C)C(=O)N1CCC[C@H]1C(N)=O)C(C)C [human calcitonin]
action in delaying the gastric emptying time (Female beagles [2]; beagles, summary of Table 9): weak in such action | Delay time (difference in time to aspirin absorption between calcitonin and physiological saline) (Female beagles [2]; dose 6 μg (1.2 IU)/kg i.v.): 1.3 h and 2.6 h and 2.9 h | Lag time (time from aspirin administration to its absorption) (Female beagles [2]; dose 6 μg (1.2 IU)/kg i.v.): 3.0 h and 3.9 h and 4.0 h | Delay time (difference in time to aspirin absorption between calcitonin and physiological saline) (Female beagles [2]; dose 100 μg (20.0 IU)/kg i.v.): 4.4 h and 5.0 h | Lag time (time from aspirin administration to its absorption) (Female beagles [2]; dose 100 μg (20.0 IU)/kg i.v.): 5.0 h and 6.9 h | body weight change (inhibition of body weight gain) (Rats; FIG. 3): no differences | food consumption (appetite) (Rats; FIG. 4): no differences | effect on the IMC / gastrointestinal motility (conscious dog): only a slight effect on the IMC | effect on elevated blood (plasma) calcium concentration (hypercalcemic rats): caused rapid reduction in the elevated blood calcium concentration

delay of the occurrence of the next IMC (conscious dog; dose of 3 μg/kg i.v.): 3 days
Structure (SMILES): CC(C)C[C@H](NC(=O)[C@H](CCCCN)NC(=O)CNC(=O)[C@H](CC(C)C)NC(=O)[C@@H](NC(=O)[C@@H]1CSSC[C@H](N)C(=O)N[C@@H](CO)C(=O)N[C@@H](CC(N)=O)C(=O)N[C@@H](CC(C)C)C(=O)N[C@@H](CO)C(=O)N[C@@H]([C@@H](C)O)C(=O)N1)C(C)C)C(=O)N[C@@H](CO)C(=O)N[C@@H](CCC(N)=O)C(=O)N[C@@H](CCC(=O)O)C(=O)N[C@@H](CC(C)C)C(=O)N[C@@H](Cc1c[nH]cn1)C(=O)N[C@@H](CCCCN)C(=O)N[C@@H](CC(C)C)C(=O)N[C@@H](CCC(N)=O)C(=O)N[C@H](C(=O)N[C@@H](Cc1ccc(O)cc1)C(=O)N1CCC[C@H]1C(=O)N[C@@H](CCCNC(=N)N)C(=O)N[C@H](C(=O)N[C@@H](CC(N)=O)C(=O)N[C@H](C(=O)NCC(=O)N[C@@H](CO)C(=O)NCC(=O)N[C@H](C(=O)N1CCC[C@H]1C(N)=O)[C@@H](C)O)[C@@H](C)O)[C@@H](C)O)[C@@H](C)O [salmon calcitonin]
effect on the IMC / gastrointestinal motility (conscious dog): does-dependently inhibited the occurrence of the next IMC | effect on elevated blood (plasma) calcium concentration (hypercalcemic rats): caused rapid reduction in the elevated blood calcium concentration | dose at which competition with 125I labelled salmon calcitonin started [3]: at least 1 ng/ml | action in delaying the gastric emptying time (Female beagles [1]): very strong action in delaying the gastric emptying time
